Consider 32 compounds from patent US20130252951A1, “7-HYDROXY-PYRAZOLO[1,5-A] PYRIMIDINE COMPOUNDS AND THEIR USE AS CCR2 RECEPTOR ANTAGONISTS” (Proximagen Limited, priority 2010, published 2013).

For this test, the target named is human CCR2 (Homo sapiens, UniProt P41597). The test is described as follows: CCR2 functional calcium assay (FLIPR calcium flux, hMCP-1 challenge). In kind it is cell-based. On the set-up: expressed in transfected cells; host or cells: HEK293 EBNA cells. The note with it: HEK293 EBNA cells transfected with human CCR2, hMCP-1 challenge; read-out: Functional CCR2 fKi. From the text:
The CCR2 receptor couples through the Gi/Gq signaling pathway and results in activation of calcium mobilization. The functional activity of test compounds was routinely tested by measuring the ability of compounds to antagonize CCR2 activity in a dose dependent manner, in HEK293 EBNA cells transfected with the human CCR2 receptor (hMCP-1 challenge), using a calcium flux Fluorescent Imaging Plate Reader FLIPR assay. Non-transfected HEK293 EBNA cells were used as control of non-specific response.
Briefly, test compounds were dissolved in dimethyl sulfoxide (DMSO) to a concentration of 10 mM and stored in matrix screenmate racks. The required amount of compound was transferred to 96-well compound plates on the day of assay and diluted in assay buffer to the required final concentration; dose-response measurements were assayed by making 1:3 serial dilutions to produce 10 point curves. The compounds were then transferred to 384-well assay plates ready for use. Top concentrations were adjusted depending on the potency of the compounds with a typical concentration range of 30 μM to 0.5 nM being used. The assay buffer used was HBSS buffer supplemented with 20 mM HEPES and 0.1% BSA, pH7.4. The loading/wash buffers were the same as the assay buffer.
Cells were suspended in culture medium at a density of 10000 cells/50 μl (the cell culture media composition was DMEM high glucose supplemented with 10% dialyzed FBS, 250 μg/ml Geneticin, and 400 μg/ml Hygromycin B), transferred to 384-well black/clear Costar plates (Costar #3712) (50 μl/well) and incubated at 37° C., in a 5% CO2/95% air humidified incubator for 16 h. The cells were washed with assay buffer at 37° C. using the Biotek ELx 405, washing 3 times, leaving 20 μl buffer in the well. 20 μl Fluo-4 (Fluo-4 stock solution (1 mM) was prepared by dissolving one vial of Fluo-4 (50 μg) in 45 μl of pluronic acid (240 mg/ml in DMSO). This stock solution of Fluo-4 was then diluted 250 times with loading buffer to give a Fluo-4 concentration of 4 μM. The dye solution (used within 2 h and kept away from light) was added to each well using a repeating multichannel pipette; the cells were then incubated at 37° C. for 60 min. Following the incubation, cells were washed in assay buffer at 37° C. using the Biotek ELx 405, washing 3 times, leaving 40 μl in each well and incubated for 10 min at 37° C. before use. A combined agonist/antagonist protocol was used. Compound (antagonist) was added to the cell plate using the FLIPR. Basal fluorescence was recorded every second for 10 seconds prior to compound addition (10 μl) and fluorescence recorded every second for 1 minute then every 6 seconds for a further 1 minute. Agonist (MCP-1) was then added using the FLIPR and fluorescence recorded as described above.
The positive control (agonist) was human recombinant MCP-1 which was stored as a stock concentration of 10 μM in distilled water and stored at −20° C. (maximal response: 30 nM; EC50 dose: 3-5 nM). The reference compound (antagonist) was RS102895 which was used as a 10 mM DMSO solution and stored at −20° C.
FLIPR responses were measured as peak minus basal fluorescence intensity and were expressed as a percentage of EC50 MCP-1 challenge. Curve-fitting and parameter estimation were carried out using GraphPad Prism 4.0 (GraphPad Software Inc., San Diego, Calif.).

Some results are limits rather than exact numbers.

human CCR2, sequence (P41597 whole entry): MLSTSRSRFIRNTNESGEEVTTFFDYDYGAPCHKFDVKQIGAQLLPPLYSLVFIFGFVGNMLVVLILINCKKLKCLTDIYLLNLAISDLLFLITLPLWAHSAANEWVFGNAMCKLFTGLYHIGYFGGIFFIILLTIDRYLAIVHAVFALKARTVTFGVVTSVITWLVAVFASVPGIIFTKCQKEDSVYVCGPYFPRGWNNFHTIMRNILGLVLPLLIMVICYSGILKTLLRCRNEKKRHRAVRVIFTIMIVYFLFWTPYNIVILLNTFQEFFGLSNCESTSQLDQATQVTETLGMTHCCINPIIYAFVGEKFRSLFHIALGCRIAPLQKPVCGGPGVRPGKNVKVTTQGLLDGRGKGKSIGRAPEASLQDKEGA

For `CC(C)OC(=O)c1nc2ccnn2c(O)c1Cc1ccc(F)c(Cl)c1` [Example 87, Propan-2-yl6-[(3-chloro-4-fluorophenyl)methyl]-7-hydroxypyrazolo[1,5-a]pyrimidine-5-carboxylate], the Ki is < 10 nM. The same measure for `Cc1nc2ccnn2c(O)c1N(C)c1cccc(F)c1` [Example 80, 6-[(3-Fluorophenyl)(methyl)amino]-5-methylpyrazolo[1,5-a]pyrimidin-7-ol]: 100 to 1000 nM; for `Oc1c(Cc2ccc(Cl)c(Cl)c2)c(C(F)(F)F)nc2ccnn12` [Example 55, 6-[(3,4-Dichlorophenyl)methyl]-5-(trifluoromethyl)pyrazolo[1,5-a]pyrimidin-7-ol]: < 10 nM. `COCCc1nc2ccnn2c(O)c1Cc1ccc(Cl)cc1` [Example 54, 6-[(4-Chlorophenyl)methyl]-5-(2-methoxyethyl)pyrazolo[1,5-a]pyrimidin-7-ol]: the Ki was 10 to 100 nM. The same measure for `CC(C)OC(=O)c1nc2ccnn2c(O)c1Cc1cccc(Cl)c1` [Example 82, Propan-2-yl 6-[(3-chlorophenyl)methyl]-7-hydroxypyrazolo[1,5-a]pyrimidine-5-carboxylate]: < 10 nM; for `Cc1nc2c(C(=O)NCCc3ccccc3)cnn2c(O)c1Cc1ccc(Cl)cc1` [Example 105, 6-[(4-Chlorophenyl)methyl]-7-hydroxy-5-methyl-N-(2-phenylethyl)pyrazolo[1,5-a]pyrimidine-3-carboxamide]: 100 to 1000 nM; for `CCOC(=O)c1nc2ccnn2c(O)c1Oc1ccc(Cl)c(F)c1` [Example 75, Ethyl 6-(4-chloro-3-fluorophenoxy)-7-hydroxypyrazolo[1,5-a]pyrimidine-5-carboxylate]: 10 to 100 nM.

As for `CCc1nc2ccnn2c(O)c1Cc1ccc(Cl)c(Cl)c1` [Example 15, 6-[(3,4-Dichlorophenyl)methyl]-5-ethylpyrazolo[1,5-a]pyrimidin-7-ol], the Ki was < 10 nM. The same measure for `Cc1noc(-c2nc3ccnn3c(O)c2Cc2cccc(F)c2)n1` [Example 92, 6-[(3-Fluorophenyl)methyl]-5-(3-methyl-1,2,4-oxadiazol-5-yl)pyrazolo[1,5-a]pyrimidin-7-ol]: 100 to 1000 nM. The same measure for `Oc1c(Cc2ccc(Cl)c(Cl)c2)c(C2CCCO2)nc2ccnn12` (centres unmarked) [Example 56, 6-[(3,4-Dichlorophenyl)methyl]-5-(oxolan-2-yl)pyrazolo[1,5-a]pyrimidin-7-ol]: < 10 nM. The same measure for `CCc1nc2ccnn2c(O)c1Cc1cc(F)cc(C(F)(F)F)c1` [Example 4, 5-Ethyl-6-{[3-fluoro-5-(trifluoromethyl)phenyl]methyl}pyrazolo[1,5-a]pyrimidin-7-ol]: < 10 nM; for `COCCNC(=O)c1cnn2c(O)c(Cc3ccc(Cl)c(Cl)c3)c(C)nc12` [Example 115, 6-[(3,4-Dichlorophenyl)methyl]-7-hydroxy-N-(2-methoxyethyl)-5-methylpyrazolo-[1,5-a] pyrimidine-3-carboxamide]: 10 to 100 nM; for `CCCc1nc2ccnn2c(O)c1Cc1ccc(Cl)c(Cl)c1` [Example 17, 6-[(3,4-Dichlorophenyl)methyl]-5-propyl-pyrazolo[1,5-a]pyrimidin-7-ol]: < 10 nM. In the case of `COCCCNC(=O)c1cnn2c(O)c(Cc3ccccc3)c(C)nc12` [Example 112, 6-Benzyl-7-hydroxy-N-(3-methoxypropyl)-5-methylpyrazolo[1,5-a] pyrimidine-3-carboxamide], the Ki lay in the range of 100 to 1000 nM. The same measure for `COCCNC(=O)c1cnn2c(O)c(Cc3ccc(C(F)(F)F)cc3)c(C)nc12` [Example 113, 7-Hydroxy-N-(2-methoxyethyl)-5-methyl-6-{[4-(trifluoromethyl)phenyl]methyl}pyrazolo [1,5-a]pyrimidine-3-carboxamide]: 100 to 1000 nM; for `Cc1nc2c(C#N)cnn2c(O)c1Cc1ccc(Cl)cc1` [Example 59, 6-[(4-Chlorophenyl)methyl]-7-hydroxy-5-methylpyrazolo[1,5-a]pyrimidine-3-carbonitrile]: 100 to 1000 nM; for `COCCNC(=O)c1cnn2c(O)c(Cc3ccc(Cl)cc3)c(C)nc12` [Example 107, 6-[(4-Chlorophenyl)methyl]-7-hydroxy-N-(2-methoxyethyl)-5-methylpyrazolo[1,5-a]-pyrimidine-3-carboxamide]: 10 to 100 nM. The same measure for `Cc1nc2ccnn2c(O)c1Cc1ccc(F)c(C#N)c1` [Example 8, 2-Fluoro-5-({7-hydroxy-5-methylpyrazolo-(1,5-a]pyrimidin-6-yl}methyl)benzonitrile]: 100 to 1000 nM; for `CCOC(=O)c1nc2ccnn2c(O)c1Oc1ccc(Cl)c(Cl)c1` [Example 76, Ethyl 6-(3,4-dichlorophenoxy)-7-hydroxy-pyrazolo[1,5-a]pyrimidine-5-carboxylate]: 10 to 100 nM. Regarding `Oc1c(Cc2cc(F)c(F)c(F)c2)c(C2CCC2)nc2ccnn12` [Example 49, 5-Cyclobutyl-6-[(3,4,5-trifluorophenyl)-methyl]pyrazolo[1,5-a]pyrimidin-7-ol], the Ki was < 10 nM. Consider `CCc1nc2ccnn2c(O)c1Cc1cc(F)cc(F)c1` [Example 12, 6-[(3,5-difluorophenyl)methyl]-5-ethyl-pyrazolo[1,5-a]pyrimidin-7-ol], for which the Ki was < 10 nM. Regarding `Oc1c(Cc2cc(Cl)cc(Cl)c2)c(C2CC2)nc2ccnn12` [Example 34, 5-Cyclopropyl-6-[(3,5-dichlorophenyl)-methyl]pyrazolo[1,5-a]pyrimidin-7-ol], the Ki is < 10 nM. For the compound `Oc1c(Cc2ccc(C(F)(F)F)c(F)c2)c(C2CC2)nc2ccnn12` [Example 32, 5-Cyclopropyl-6-{[3-fluoro-4-(trifluoromethyl)phenyl]methyl}pyrazolo[1,5-a]pyrimidin-7-ol], the Ki was < 10 nM. The same measure for `Cc1nc2ccnn2c(O)c1Cc1cccc(F)c1F` [Example 7, 6-[(2,3-Difluorophenyl)methyl]-5-methyl-pyrazolo[1,5-a]pyrimidine-7-ol]: 100 to 1000 nM; for `CCc1nc2ccnn2c(O)c1Cc1ccc(F)c(Cl)c1` [Example 14, 6-[(3-Chloro-4-fluorophenyl)methyl]-5-ethylpyrazolo[1,5-a]pyrimidin-7-ol]: < 10 nM; for `Oc1c(Cc2cccc(Cl)c2)c(C2CCC2)nc2ccnn12` [Example 43, 6-[(3-Chlorophenyl)methyl]-5-cyclobutyl-pyrazolo[1,5-a]pyrimidin-7-ol]: < 10 nM. The same measure for `CC(C)OC(=O)c1nc2ccnn2c(O)c1Cc1ccc(Cl)c(F)c1` [Example 88, Propan-2-yl6-[(4-chloro-3-fluorophenyl)methyl]-7-hydroxypyrazolo[1,5-a]pyrimidine-5-carboxylate]: < 10 nM; for `CCOC(=O)c1nc2ccnn2c(O)c1Cc1cccc(C(F)(F)F)c1` [Example 71, Ethyl 7-hydroxy-6-{[3-(trifluoromethyl)-phenyl]methyl}pyrazolo[1,5-a]pyrimidine-5-carboxylate]: 10 to 100 nM.

With `Cc1nc2c(C(=O)NCCOc3ccccc3)cnn2c(O)c1Cc1ccccc1` [Example 103, 6-Benzyl-7-hydroxy-5-methyl-N-(2-phenoxyethyl)pyrazolo[1,5-a]pyrimidine-3-carboxamide], the Ki is 100 to 1000 nM. Regarding `Cc1nc2c(C)cnn2c(O)c1Cc1ccc(Cl)cc1` [Example 57, 6-[(4-Chlorophenyl)methyl]-3,5-dimethyl-pyrazolo[1,5-a]pyrimidin-7-ol], the Ki is 100 to 1000 nM. For the compound `COC(=O)c1nc2ccnn2c(O)c1Cc1cccc(F)c1` [Example 69, Methyl 6-[(3-fluorophenyl)methyl]-7-hydroxypyrazolo[1,5-a]pyrimidine-5-carboxylate], the Ki lay in the range of 10 to 100 nM. The same measure for `Oc1c(Cc2ccc(Cl)cc2)c(C2CCC2)nc2ccnn12` [Example 44, 6-[(4-Chlorophenyl)methyl]-5-cyclobutyl-pyrazolo[1,5-a]pyrimidin-7-ol]: < 10 nM.
